Read-outs that look alike come from different tables or passages of the source.
Experiments:
[1] = molecular target: mu and delta opioid receptors (Homo sapiens, UniProt P35372+P41143); conditions: cited from earlier work
[2] = molecular target: DAT-NLS-GFP (Homo sapiens, UniProt Q01959, C581K/S582R/Y578K); experiment: DAT-NLS-GFP translocation, HEK cells; type: cell-based; conditions: 1 micromolar, 48 hours
Procedure: HEK cells were transfected with a DNA construct encoding DAT-NLS-GFP (2 micrograms) and incubated for 48 hours. […] The cells were examined by confocal microscopy.
HEK cells were transfected with a construct encoding DAT-NLS-GFP (2 micrograms) and incubated for 48 hours. […] The cells were examined by confocal microscopy.
Control HEK cells were transfected with DAT-NLS-GFP incubated for 48 hours and not treated with drug.

[3] = molecular target: T1, D2-NLS-GFP (Homo sapiens, UniProt P14416, E432K/I431K/K435R/R434K); experiment: D2-NLS-GFP translocation, HEK cells; type: cell-based
T1 construct: expressed in transfected cells; host or cells: HEK cells
T1 sequence (P14416 whole entry I431K/E432K/R434K/K435R): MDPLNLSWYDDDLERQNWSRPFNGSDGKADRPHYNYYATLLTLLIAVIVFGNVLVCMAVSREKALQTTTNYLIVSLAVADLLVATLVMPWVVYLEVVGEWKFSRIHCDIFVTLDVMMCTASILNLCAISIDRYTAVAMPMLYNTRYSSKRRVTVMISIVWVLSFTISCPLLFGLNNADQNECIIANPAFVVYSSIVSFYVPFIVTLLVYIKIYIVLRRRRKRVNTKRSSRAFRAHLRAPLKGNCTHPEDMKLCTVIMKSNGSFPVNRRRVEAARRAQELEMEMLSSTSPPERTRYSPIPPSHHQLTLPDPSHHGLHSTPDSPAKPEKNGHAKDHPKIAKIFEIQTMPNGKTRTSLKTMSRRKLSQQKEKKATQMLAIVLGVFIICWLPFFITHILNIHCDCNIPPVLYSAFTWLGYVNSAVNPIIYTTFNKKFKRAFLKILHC
Procedure: At 6, 22, 30 and 42 hours after transfection, the cells were treated with the antagonists. Cells were incubated 48 hrs after drug treatment and examined by confocal microscopy.

[4] = molecular target: T2, 5HT1B-NLS-GFP (Homo sapiens, UniProt P28222, D375K/E374K/Q378R); experiment: 5HT1B-NLS-GFP translocation, HEK cells; type: cell-based; conditions: 10 micromolar, 48 hours
T2 construct: expressed in transfected cells; host or cells: HEK cells
T2 sequence (P28222 whole entry E374K/D375K/Q378R): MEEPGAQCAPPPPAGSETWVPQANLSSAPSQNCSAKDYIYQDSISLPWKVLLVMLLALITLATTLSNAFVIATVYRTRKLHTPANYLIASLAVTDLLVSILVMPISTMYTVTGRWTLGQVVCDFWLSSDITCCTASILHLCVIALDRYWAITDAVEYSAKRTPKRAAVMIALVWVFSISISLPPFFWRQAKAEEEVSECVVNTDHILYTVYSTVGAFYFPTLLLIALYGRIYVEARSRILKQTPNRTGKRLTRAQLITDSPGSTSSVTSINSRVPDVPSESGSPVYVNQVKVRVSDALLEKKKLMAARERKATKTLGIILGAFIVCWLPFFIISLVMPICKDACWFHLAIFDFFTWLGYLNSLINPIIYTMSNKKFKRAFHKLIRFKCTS
Procedure: HEK cells were transfected with a DNA construct encoding the serotonin 5HT1B-NLS-GFP (2 micrograms). The cells were transfected with Ds-red-NUC to verify the localisation of the nucleus (1 microgram). Cells were treated with methysergide (10 micromolar), a serotonin receptor antagonist. […] Control cells received no antagonist. The cells were examined by confocal microscopy.

[5] = molecular target: T3, DAT-NLS-RFP (Homo sapiens, UniProt Q01959, C581K/S582R/Y578K); experiment: DAT-NLS-RFP trafficking to the nucleus, HEK cells; type: cell-based; conditions: 10 micromolar, 48 hours
T3 construct: The full length cDNA encoding the human dopamine transporter (hDAT) was amplified using DAT in pcDNA3 as template; expressed in transfected cells; host or cells: HEK cells
T3 sequence (Q01959 whole entry Y578K/C581K/S582R): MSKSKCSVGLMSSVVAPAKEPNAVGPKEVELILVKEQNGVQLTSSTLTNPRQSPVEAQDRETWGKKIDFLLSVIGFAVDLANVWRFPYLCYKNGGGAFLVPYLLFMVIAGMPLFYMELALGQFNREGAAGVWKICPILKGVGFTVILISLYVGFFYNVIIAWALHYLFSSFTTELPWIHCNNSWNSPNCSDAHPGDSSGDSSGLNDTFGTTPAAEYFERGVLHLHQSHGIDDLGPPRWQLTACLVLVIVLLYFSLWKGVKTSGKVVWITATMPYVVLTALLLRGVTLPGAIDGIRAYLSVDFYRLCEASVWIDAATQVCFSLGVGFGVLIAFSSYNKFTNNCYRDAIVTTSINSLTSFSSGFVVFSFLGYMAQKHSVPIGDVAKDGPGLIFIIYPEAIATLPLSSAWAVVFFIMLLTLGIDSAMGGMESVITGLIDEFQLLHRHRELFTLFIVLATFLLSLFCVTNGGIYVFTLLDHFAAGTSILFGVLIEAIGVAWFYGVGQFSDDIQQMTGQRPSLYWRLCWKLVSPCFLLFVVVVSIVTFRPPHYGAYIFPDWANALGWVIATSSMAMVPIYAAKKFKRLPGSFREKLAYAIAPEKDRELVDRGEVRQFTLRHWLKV
Procedure: HEK cells were transfected with a DNA construct encoding DAT-NLS-RFP (2 micrograms) and incubated for 48 hours. At 6, 22, 30 and 42 hours after transfection, the cells were treated with cocaine or amphetamine (final concentration 10 micromolar), or left untreated. The cells were examined by confocal microscopy.

[6] = molecular target: T4, Cys-LT2-NLS-GFP (Homo sapiens, UniProt Q9NS75, D314R/E310K/N311K); experiment: Cys-LT2-NLS-GFP translocation, HEK cells; type: cell-based; conditions: 10 micromolar
T4 construct: expressed in transfected cells; host or cells: HEK cells
T4 sequence (Q9NS75 1-346 E310K/N311K/D314R): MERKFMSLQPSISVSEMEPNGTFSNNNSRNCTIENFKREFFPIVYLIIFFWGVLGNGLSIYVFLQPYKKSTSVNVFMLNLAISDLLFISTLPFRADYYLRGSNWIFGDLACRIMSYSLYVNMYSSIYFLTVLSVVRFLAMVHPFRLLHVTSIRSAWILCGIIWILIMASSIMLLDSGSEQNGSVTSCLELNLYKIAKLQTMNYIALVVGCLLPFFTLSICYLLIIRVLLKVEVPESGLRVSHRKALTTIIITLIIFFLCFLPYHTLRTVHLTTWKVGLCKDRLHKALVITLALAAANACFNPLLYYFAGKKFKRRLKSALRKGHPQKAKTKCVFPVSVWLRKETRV
Procedure: The DNA encoding Cys-LT2-NLS-GFP (3 micrograms) was used to transfect HEK cells. These cells were treated with the cysteinyl leukotriene receptor antagonist, montelukast (10 micromolar). […] Control cells received no antagonist. The cells were examined by confocal microscopy.

[7] = molecular target: M1-NLS-GFP (Homo sapiens, UniProt P11229, A424K/D427R/R426K); conditions: 10 micromolar, 48 hours
M1-NLS-GFP, sequence (P11229 whole entry A424K/R426K/D427R): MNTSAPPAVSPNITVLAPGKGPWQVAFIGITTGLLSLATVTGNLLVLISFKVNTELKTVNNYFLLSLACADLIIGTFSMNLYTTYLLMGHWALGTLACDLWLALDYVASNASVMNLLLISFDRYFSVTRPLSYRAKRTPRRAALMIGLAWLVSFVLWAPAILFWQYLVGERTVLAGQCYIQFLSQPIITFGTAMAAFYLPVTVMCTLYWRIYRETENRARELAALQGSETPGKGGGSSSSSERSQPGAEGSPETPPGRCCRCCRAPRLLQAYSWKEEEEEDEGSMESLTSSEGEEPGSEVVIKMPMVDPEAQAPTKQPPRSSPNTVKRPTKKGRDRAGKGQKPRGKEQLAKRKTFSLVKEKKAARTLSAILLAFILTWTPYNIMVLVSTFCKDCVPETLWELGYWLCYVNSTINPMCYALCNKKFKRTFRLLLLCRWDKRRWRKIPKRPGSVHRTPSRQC
Procedure: These cells were treated with iprotropium bromide (10 micromolar). The medium containing antagonist was replaced at 6, 22, 30 and 42 hours after transfection. Control cells received no antagonist treatment. The cells were examined by confocal microscopy.

[8] = molecular target: T5, D1-NLS-GFP (Homo sapiens, UniProt P21728, A340R/D336K/F337K/R338F); experiment: D1-NLS-GFP translocation, long-term agonist treatment, HEK cells; type: cell-based; conditions: agonist 10 micromolar, 48 hours
T5 construct: expressed in transfected cells; host or cells: HEK cells (HEK293T)
T5 sequence (P21728 whole entry D336K/F337K/R338F/A340R): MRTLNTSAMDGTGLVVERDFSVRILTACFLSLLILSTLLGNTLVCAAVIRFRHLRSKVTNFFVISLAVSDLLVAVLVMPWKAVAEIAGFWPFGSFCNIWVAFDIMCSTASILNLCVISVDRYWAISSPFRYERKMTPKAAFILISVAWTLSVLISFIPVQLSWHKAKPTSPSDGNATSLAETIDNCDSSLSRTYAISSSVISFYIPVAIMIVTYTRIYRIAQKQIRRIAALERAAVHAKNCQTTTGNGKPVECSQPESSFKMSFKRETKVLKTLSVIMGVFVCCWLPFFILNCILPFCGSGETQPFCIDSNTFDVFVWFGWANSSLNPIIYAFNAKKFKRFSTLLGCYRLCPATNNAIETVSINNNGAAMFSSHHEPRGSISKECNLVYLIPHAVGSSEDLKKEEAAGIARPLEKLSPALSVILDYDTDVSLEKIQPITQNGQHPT
Procedure: The cells were examined by confocal microscopy.
HEK cells were transfected with a DNA construct encoding D1-NLS-GFP (1.5 micrograms of DNA), and incubated with the agonist pergolide (10 micromolar) for 48 hours. […] The cells were examined by confocal microscopy.
Control HEK cells were transfected with a DNA construct encoding D1-NLS-GFP (1.5 micrograms of DNA) and left untreated.

[9] = molecular target: T5, D1-NLS-GFP; experiment: D1-NLS-GFP (with D1-WT) translocation, antagonist dose response, HEK cells, confocal microscopy; type: cell-based; conditions: 48 hours
Procedure: Test compounds were prepared in a stock solution of 1 millimolar concentration and diluted in growth medium to achieve a final concentration ranging between 10 nanomolar and 10 micromolar when added to cell plates. Fresh compound-containing medium was added to cells at 6 hours, 22 hours, 30 hours and 42 hours after transfection.
Cells were visualised using the LSM510 Zeiss confocal laser microscope. GFP was visualised following excitation with the argon laser at 488 nm excitation wavelength and the DsRed was visualised following excitation with the helium neon laser at 543 nm wavelength for excitation. The confocal images were captured on disk and evaluated. In each experiment, multiple fields of cells (n=6-8 with 30-90 cells each) were counted and evaluated for localisation of the signal on the cell surface, in the cytoplasm and in the nucleus.
HEK cells were transfected with DNA encoding D1-NLS-GFP (2 micrograms), and D1-WT (6 micrograms) for 48 hours. […] The medium containing antagonist was changed at 6, 22, 30 and 42 hours after transfection. Control cells received no antagonist treatment.

[10] = molecular target: T6, D1-IC1-NLS-GFP (Homo sapiens, UniProt P21728, H53R/I49K/R50K/R52K); experiment: D1-IC1-NLS-GFP trafficking, HEK cells; type: cell-based; conditions: 1 micromolar, 48 hours
T6 construct: expressed in transfected cells; host or cells: HEK cells
T6 sequence (P21728 9-446 I49K/R50K/R52K/H53R limits assumed): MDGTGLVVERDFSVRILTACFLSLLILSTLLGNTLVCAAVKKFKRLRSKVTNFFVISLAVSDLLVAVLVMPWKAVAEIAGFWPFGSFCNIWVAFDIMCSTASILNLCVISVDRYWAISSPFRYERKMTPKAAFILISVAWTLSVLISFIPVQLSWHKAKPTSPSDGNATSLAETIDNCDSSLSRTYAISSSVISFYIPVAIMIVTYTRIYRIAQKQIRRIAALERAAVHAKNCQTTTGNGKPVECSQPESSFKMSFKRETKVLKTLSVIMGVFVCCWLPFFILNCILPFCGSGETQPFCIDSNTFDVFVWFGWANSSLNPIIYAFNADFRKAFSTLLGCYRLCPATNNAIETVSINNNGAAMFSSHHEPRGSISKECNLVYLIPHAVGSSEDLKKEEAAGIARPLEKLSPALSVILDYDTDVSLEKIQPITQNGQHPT
Source text: (§1) Nuclei were visualised with DsRED-NUC (2 micrograms). The cells were examined by confocal microscopy.

[11] = molecular target: T7, D1-2NLS-RFP (Homo sapiens, UniProt P21728, A340R/A406K/D336K/E404K/E405R/F337K/R338F); experiment: D1-2NLS-RFP trafficking, HEK cells; type: cell-based; conditions: 10 μM, 48 hours
T7 construct: expressed in transfected cells; host or cells: HEK cells
T7 sequence (P21728 whole entry D336K/F337K/R338F/A340R/E404K/E405R/A406K): as the sequence (P21728 whole entry D336K/F337K/R338F/A340R) above, with E404K, E405R, A406K counted along it
Procedure: By modifying the construct encoding D1-NLS-RFP, a DNA construct (D1-2NLS-RFP) was created to introduce a second NLS into the carboxyl tail of the dopamine D1 receptor by replacing the KKEEA (SEQ ID NO:171) sequence of the wild type D1 dopamine receptor with the NLS, KKKRK (SEQ ID NO:177).
HEK cells were transfected with DNA encoding this construct (D1-2NLS-RFP), and treated at intervals with the antagonist SCH-23390 (10 μM) as previously described. […] Control cells received no antagonist.

[12] = molecular target: D1-IC3-NLS-GFP (Homo sapiens, UniProt P21728, M262K/S263K); experiment: D1-IC3-NLS-GFP trafficking, HEK cells; type: cell-based; conditions: 10 micromolar to 100 nanomolar (four concentrations), 48 hours
D1-IC3-NLS-GFP, sequence (P21728 9-446 M262K/S263K limits assumed): as the sequence (P21728 9-446 I49K/R50K/R52K/H53R limits assumed) above, with K41I, K42R, K44R, R45H, M254K, S255K counted along it
Source text: as §1

[13] = molecular target: T8, HA-D1-NLS (Homo sapiens, UniProt P21728, A340R/D336K/F337K/R338F); experiment: HA-D1-NLS cell surface receptor detected by fluorometry; type: cell-based; conditions: removal of SCH 23390 (0.5 micromolar) for the last hour, no agonist
T8 construct: MGYPYDVPDYARTLNTSAMDGTGLVV; expressed in transfected cells; host or cells: HEK cells
T8 sequence (P21728 whole entry D336K/F337K/R338F/A340R): as the sequence (P21728 whole entry D336K/F337K/R338F/A340R) above
Source text: Wells in a multi-well plate were coated with poly-L-ornithine and then plated with 50,000 cells per well. […] Following this, the cells were fixed with paraformaldehyde, and cell surface receptors were detected with a rat anti-HA antibody and then a goat anti-rat antibody conjugated to FITC. The fluorescent signal was detected by fluorometry (Cytofluor).
Wells in a multi-well plate were coated with poly-L-ornithine and then plated with 50,000 cells per well. […] Following this, the cells were fixed with paraformaldehyde, and cell surface receptors were detected with a rat anti-HA antibody and then a goat anti-rat antibody conjugated to FITC. The fluorescent signal was detected by fluorometry (Cytofluor). The results are the average of five wells per experimental condition.
HEK cells were transfected with HA-D1-NLS in a multi-well plate were coated with poly-L-ornithine at a concentration of 50,000 cells per well. […] Following this, the cells were fixed with paraformaldehyde, and cell surface receptors were detected with a rat anti-HA antibody and then a goat anti-rat antibody conjugated to FITC. The fluorescent signal was detected by fluorometry (Cytofluor). The results are the average of five wells per experimental condition.

[14] = molecular target: D1-NLS2-GFP (Homo sapiens, UniProt P21728, A335P/A340K/D336K/F337K/F341V/K339R/R338K); conditions: 1 micromolar, 48 hrs
D1-NLS2-GFP, sequence (P21728 9-446 A335P/D336K/F337K/R338K/K339R/A340K/F341V limits assumed): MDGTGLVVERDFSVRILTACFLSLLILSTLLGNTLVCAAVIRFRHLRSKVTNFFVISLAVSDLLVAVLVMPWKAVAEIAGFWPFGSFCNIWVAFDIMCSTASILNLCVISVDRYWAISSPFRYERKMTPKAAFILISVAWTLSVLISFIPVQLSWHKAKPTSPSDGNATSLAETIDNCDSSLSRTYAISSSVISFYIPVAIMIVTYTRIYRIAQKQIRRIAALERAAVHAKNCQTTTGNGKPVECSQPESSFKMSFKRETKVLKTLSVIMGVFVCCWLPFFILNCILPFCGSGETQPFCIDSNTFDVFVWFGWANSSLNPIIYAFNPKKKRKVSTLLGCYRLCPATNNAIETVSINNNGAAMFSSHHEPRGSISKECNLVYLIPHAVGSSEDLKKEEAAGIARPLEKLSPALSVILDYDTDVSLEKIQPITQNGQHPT
Source text: Nuclei were visualised with DsRed-nuc (2 micrograms). Cells were examined by confocal microscopy.

DAT-NLS-GFP, sequence (Q01959 whole entry Y578K/C581K/S582R): as the sequence (Q01959 whole entry Y578K/C581K/S582R) above
mu and delta opioid receptors, sequence (P35372 whole entry): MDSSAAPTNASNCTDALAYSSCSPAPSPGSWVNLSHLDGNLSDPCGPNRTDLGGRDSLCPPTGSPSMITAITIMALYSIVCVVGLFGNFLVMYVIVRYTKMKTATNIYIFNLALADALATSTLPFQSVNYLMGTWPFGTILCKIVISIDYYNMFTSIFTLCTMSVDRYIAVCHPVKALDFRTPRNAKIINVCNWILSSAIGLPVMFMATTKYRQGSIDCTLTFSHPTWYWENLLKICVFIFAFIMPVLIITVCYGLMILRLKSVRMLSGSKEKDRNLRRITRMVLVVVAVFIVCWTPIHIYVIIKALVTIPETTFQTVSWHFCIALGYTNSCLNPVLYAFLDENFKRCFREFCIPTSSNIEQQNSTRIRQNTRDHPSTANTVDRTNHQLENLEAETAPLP
mu and delta opioid receptors, sequence (P41143 whole entry): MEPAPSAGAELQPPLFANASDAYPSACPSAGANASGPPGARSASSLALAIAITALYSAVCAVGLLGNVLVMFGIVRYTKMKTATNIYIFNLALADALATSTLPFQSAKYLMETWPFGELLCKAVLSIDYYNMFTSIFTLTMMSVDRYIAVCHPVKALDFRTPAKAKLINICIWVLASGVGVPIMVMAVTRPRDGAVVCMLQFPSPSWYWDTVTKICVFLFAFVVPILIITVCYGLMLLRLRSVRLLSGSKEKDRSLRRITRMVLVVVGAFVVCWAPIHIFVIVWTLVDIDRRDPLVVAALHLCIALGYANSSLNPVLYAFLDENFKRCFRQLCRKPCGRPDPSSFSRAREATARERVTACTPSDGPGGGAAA

C[C@@H](NC(=O)[C@@H](N)Cc1ccc(O)cc1)C(=O)NCC(=O)N(C)[C@@H](Cc1ccccc1)C(=O)NCCO [DAMGO]
potency at co-expressed versus individual receptors [1]: reduced potency

OC1(c2ccc(Cl)cc2)c2ccccc2C2=NCCN21 (stereo not drawn) [mazindol]
% cells with transporter expression in the nucleus and cytoplasm [2]: 39%
% cells with transporter expression on the cell surface and in cytoplasm [2]: 61%

CCN1CCC[C@H]1CNC(=O)c1c(O)c(Cl)cc(Cl)c1OC [raclopride]
% cells with cell surface labelling ([3]; 10 micromolar, 48 hrs): 80%
% cells with cytoplasmic label ([3]; 10 micromolar, 48 hrs): 15%
% cells with nuclear labelling ([3]; 10 micromolar, 48 hrs): 5%

CC[C@@H](CO)NC(=O)[C@@H]1C=C2c3cccc4c3c(cn4C)C[C@H]2N(C)C1 [methysergide]
% cells with cell surface localisation [4]: 62%
% cells with receptor in the nucleus [4]: 25%

CC(N)Cc1ccccc1 (stereo not drawn) [amphetamine]
% cells with cell surface or cytoplasmic expression of DAT-NLS-RFP [5]: 34%
% cells with transporter expression in the nucleus and cytoplasm [5]: 66%
effect on the trafficking of the DAT-NLS-RFP to the nucleus [5]: no inhibitory effect

(+)butaclamol
% cells with cell surface labelling [3]: 90%
% cells with cytoplasmic label [3]: 5%
% cells with nuclear labelling [3]: 5%

CC(C)(O)c1ccccc1CC[C@@H](SCC1(CC(=O)O)CC1)c1cccc(/C=C/c2ccc3ccc(Cl)cc3n2)c1 [montelukast]
% cells with cell surface expression of receptor [6]: 90%
% cells with nuclear localisation of the receptor [6]: 10%

iprotropium bromide
% cells with receptor expression in the cytoplasm only [7]: 17%
% cells with receptor expression in the nucleus [7]: 11%
% cells with receptor expression on the cell surface [7]: 72%

CCCN1C[C@H](CSC)C[C@@H]2c3cccc4[nH]cc(c34)C[C@H]21 [perglolide, pergolide]
% cells with receptor expression at the cell surface [8]: 59%

COC(=O)[C@H]1[C@@H](OC(=O)c2ccccc2)C[C@@H]2CC[C@H]1N2C [cocaine]
% cells with cell surface or cytoplasmic expression of DAT-NLS-RFP [5]: 75%
% cells with transporter expression in the nucleus and cytoplasm [5]: 25%

CN1CCc2cc(Cl)c(O)cc2[C@@H](c2ccccc2)C1 [SCH-23390]
% cells receptor in nucleus ([9]; 0.2 μM): 19%
% cells receptor on surface ([9]; 0.2 μM): 32%
% cells receptor on surface and in nucleus ([9]; 0.2 μM): 49%
% cells receptor in nucleus ([9]; 0.5 μM): 20%
% cells receptor on surface ([9]; 0.5 μM): 36%
% cells receptor on surface and in nucleus ([9]; 0.5 μM): 44%
% cells receptor in nucleus ([9]; 1 μM): 15%
% cells receptor on surface ([9]; 1 μM): 39%
% cells receptor on surface and in nucleus ([9]; 1 μM): 46%
% cells receptor in nucleus ([9]; 5 μM): 12%
% cells receptor on surface ([9]; 5 μM): 46%
% cells receptor on surface and in nucleus ([9]; 5 μM): 42%
% cells receptor on surface ([9]; 10 μM, HEK cells): 58%
% cells receptor on surface and in nucleus ([9]; 10 μM, HEK cells): 32%
% cells with receptor in the nucleus [10]: 23%
% cells with receptor on the cell surface or in the cytoplasm [10]: 77%
% cells with cell surface label [11]: 51%
% cells with nuclear label [11]: 49%
% cells with receptor in the nucleus [12]: 84%
% cells with receptor on the surface [12]: 15%
loss of HA-D1-NLS receptors from the cell surface [13]: 33%
% cells with receptor expression in the nucleus [14]: 22%
% cells with receptor on the cell surface or in cytoplasm [14]: 78%

Reference: US9005905B2, “Method of identifying transmembrane protein-interacting compounds” (Omeros Corporation, priority 2002, dated 2015)
